Measured values from patent US20080318933A1, “5-Sulfonyl-1-Piperidinyl Substituted Indole Derivatives as 5-Ht6 Receptor Antagonists for the Treatment of Cns Disorders” (Glaxo Group Limited, priority 2004, published 2008).
Structures can show the parent of a compound that is named as a salt.

These compounds were tested against T1, human cloned 5-HT6 receptors (Homo sapiens, UniProt P50406) (assay: Cyclase assay (cAMP production in membranes of HeLa 5HT6 cells, 5-HT stimulated)). Conditions: 5-HT at 4xEC50, functional Ki by Cheng-Prusoff, read-out: pKi values (converted).
T1 construct: expressed in transfected cells; host or cells: HeLa cells expressing cloned human 5-HT6 receptor (membranes)
Assay type: biochemical
Method: 0.5 μl of test compound in 100% dimethylsulfoxide (DMSO) was added to a white, solid 384 well assay plate (for dose response measurements the top of the concentration range is 7.5 μM final). 10 μl of washed membranes of HeLa 5HT6 cells (for preparation see WO 98/27081) in basic buffer (50 mM HEPES pH 7.4 (KOH), 10 mM MgCl2, 100 mM NaCl, 10 μM 3-isobutyl-1-methylxanthine (IBMX) (Sigma-Aldrich)) was added to all wells followed by 10 μl 2×ATP buffer (i.e. basic buffer containing 3 mM ATP) with 5-HT (at a concentration equivalent to a dose response of 4×EC50). The resultant mixture was then incubated at room temperature for 30-45 minutes to allow cAMP production. cAMP production was then measured using the DiscoveRX™ HitHunter™ chemiluminescence cAMP assay kit (DiscoveRx Corporation, 42501 Albrae Street, Fremont, Calif. 94538; Product Code: 90-0004L) or any other suitable cAMP measurement assay.
IC50 values were estimated from arbitrary designated unit (ADU) measurements from a Perkin Elmer Viewlux instrument using a four parameter logistic curve fit within EXCEL (Bowen, W. P. and Jerman, J. C. (1995), Nonlinear regression using spreadsheets. Trends in Pharmacol. Sci., 16, 413-417). Functional Ki values were calculated using the method of Cheng, Y. C. and Prussof, W. H. (Biochemical Pharmacol (1973) 22 3099-3108). plC50 and fpKi are the negative log 10 of the molar IC50 and functional Ki respectively.

T1 sequence (P50406 whole entry): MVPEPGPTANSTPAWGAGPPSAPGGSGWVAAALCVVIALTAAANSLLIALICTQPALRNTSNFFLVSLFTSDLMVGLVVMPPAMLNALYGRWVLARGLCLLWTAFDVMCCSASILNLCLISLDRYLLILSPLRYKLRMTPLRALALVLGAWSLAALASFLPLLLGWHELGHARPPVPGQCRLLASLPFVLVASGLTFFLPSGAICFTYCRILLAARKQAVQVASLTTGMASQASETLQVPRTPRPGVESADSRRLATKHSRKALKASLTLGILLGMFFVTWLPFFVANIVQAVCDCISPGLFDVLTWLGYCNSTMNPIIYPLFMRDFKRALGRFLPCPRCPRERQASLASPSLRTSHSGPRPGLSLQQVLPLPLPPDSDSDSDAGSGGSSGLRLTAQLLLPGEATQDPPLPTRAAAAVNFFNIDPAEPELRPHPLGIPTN

SMILES	Ki [µM]
CCN1CCC(N2CCc3cc(S(=O)(=O)c4cccc(Cl)c4)ccc32)CC1 [Example E54, 5-[((3-Chlorophenyl)sulfonyl]-1-(1-ethyl-4-piperidinyl)-2,3-dihydro-1H-indole hydrochloride]	≤ 0.01
CCCN1CCC(N2CCc3cc(S(=O)(=O)c4cccc(F)c4)ccc32)CC1 [Example E56, 5-[(3-Fluorophenyl)sulfonyl]-1-(1-propyl-4-piperidinyl)-2,3-dihydro-1H-indole hydrochloride]	≤ 0.01
CCN1CCC(N2CCc3cc(S(=O)(=O)c4ccccc4F)ccc32)CC1 [Example E58, 5-[(2-Fluorophenyl)sulfonyl]-1-(1-ethyl-4-piperidinyl)-2,3-dihydro-1H-indole hydrochloride]	≤ 0.01
CN1CCC(N2CCc3cc(S(=O)(=O)c4ccc(F)c(F)c4)ccc32)CC1 [Example E59, 5-[(3,4-Difluorophenyl)sulfonyl]-1-(1-methyl-4-piperidinyl)-2,3-dihydro-1H-indole hydrochloride]	≤ 0.01
Cc1cn(C2CCNCC2)c2ccc(S(=O)(=O)c3ccccc3)cc12 [Example E65, 3-Methyl-5-(phenylsulfonyl)-1-(4-piperidinyl)-1H-indole hydrochloride]	≤ 0.01

Further lines, results first:

Ki [µM]	SMILES
≤ 0.01	CCN1CCC(N2CCc3cc(S(=O)(=O)c4cccc(F)c4)ccc32)CC1 [Example E55, 5-[(3-Fluorophenyl)sulfonyl]-1-(1-ethyl-4-piperidinyl)-2,3-dihydro-1H-indole hydrochloride]
≤ 0.01	CC(C)N1CCC(N2CCc3cc(S(=O)(=O)c4cccc(F)c4)ccc32)CC1 [Example E57, 5-[(3-Fluorophenyl)sulfonyl]-1-(1-(1-methylethyl)-4-piperidinyl)-2,3-dihydro-1H-indole hydrochloride]
≤ 0.01	CCN1CCC(N2CCc3cc(S(=O)(=O)c4ccc(F)c(F)c4)ccc32)CC1 [Example E60, 5-[(3,4-Difluorophenyl)sulfonyl]-1-(1-ethyl-4-piperidinyl)-2,3-dihydro-1H-indole hydrochloride]
≤ 0.01	CCN1CCC(N2CCc3cc(S(=O)(=O)c4cccc(C)c4)ccc32)CC1 [Example E63, 5-[(3-Methylphenyl)sulfonyl]-1-(1-ethyl-4-piperidinyl)-2,3-dihydro-1H-indole hydrochloride]
≤ 0.01	CCCN1CCC(N2CCc3cc(S(=O)(=O)c4cccc(C)c4)ccc32)CC1 [Example E64, 5-[(3-Methylphenyl)sulfonyl]-1-(1-propyl-4-piperidinyl)-2,3-dihydro-1H-indole hydrochloride]
